Where two headings read alike, the source gives them in different places. Marks after values point to notes of the source that are not given here.
Tests used:
[1] = tested on: CYP3A4/5; experiment: clinical; conditions: human, in vivo
[2] = tested on: CYP3A4/5; conditions: for AUC1’-OH/AUC4-OH ratio: range over the three CYP3A5 genotype groups
[3] = biological target: recombinant CYP3A4 (rCYP3A4) (Homo sapiens, UniProt P08684)
[4] = tested on: UDP-glucuronosyltransferases (UGTs) in pooled HLMs; experiment: Glucuronidation of hydroxymidazolams in HLMs; assay type: in vitro ADME, human
[5] = tested on: plasma protein; conditions: cited from earlier work
[6] = cited from earlier work

Sequence of recombinant CYP3A4 (rCYP3A4) (P08684 2-503 limits assumed): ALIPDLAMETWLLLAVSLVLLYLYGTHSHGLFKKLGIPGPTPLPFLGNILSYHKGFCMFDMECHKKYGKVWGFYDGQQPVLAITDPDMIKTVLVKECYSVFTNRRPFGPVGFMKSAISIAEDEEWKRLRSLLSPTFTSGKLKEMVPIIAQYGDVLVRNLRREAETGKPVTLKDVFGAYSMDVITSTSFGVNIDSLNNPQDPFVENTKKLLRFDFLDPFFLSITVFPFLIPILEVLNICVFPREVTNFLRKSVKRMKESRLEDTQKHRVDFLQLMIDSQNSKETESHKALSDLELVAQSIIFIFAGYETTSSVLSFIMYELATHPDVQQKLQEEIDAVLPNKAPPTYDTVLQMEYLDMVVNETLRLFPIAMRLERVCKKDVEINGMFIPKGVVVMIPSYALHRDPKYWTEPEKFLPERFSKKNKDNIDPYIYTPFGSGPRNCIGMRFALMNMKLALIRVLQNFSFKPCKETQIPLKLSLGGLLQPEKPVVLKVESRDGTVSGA

Q: Which AUC ([1]; AUCMDZ) does the source give for `Cc1ncc2n1-c1ccc(Cl)cc1C(c1ccccc1F)=NC2` [midazolam, reference compound] here?
A: Its AUC is 0.227 µM·h.

Q: What about the AUC ([1]; iv, 1 mg, AUCMDZ) of the same compound?
A: The AUC was 0.16 ± 0.035 µM·h.

Q: And the “percent of extrapolated AUC” value ([2]; human, in vivo)?
A: The value was 13.0 ± 9.5%.

Q: With `Cc1ncc2n1-c1ccc(Cl)cc1C(c1ccccc1F)=NC2O` (centres unmarked) [4-hydroxymidazolam] as the compound, how does the AUC ([1]; iv, 1 mg, AUC4-OH) read?
A: The AUC was 0.0022 ± 0.0006 µM·h.

Q: And the “percent of extrapolated AUC” value ([2]; human, in vivo)?
A: The value was 19.0 ± 8.3%.

Q: Which results are given for `OCc1ncc2n1-c1ccc(Cl)cc1C(c1ccccc1F)=NC2` [1’-hydroxymidazolam]?
A: Ki of 1’-OH-MDZ formation (substrate inhibition) [3]: 1480 ± 615 ^a µM; AUC1’-OH/AUC4-OH ratio ([2]; control state): 6.3–9.6; percent of extrapolated AUC ([2]; extrapolation to infinity, mean ± S.D.): 18.4 ± 10.6%; AUC1’-OH/AUC4-OH ratio ([2]; with fluconazole): 2.9–4.9

Q: For hecogenin, which “effect on glucuronide formation from 1’-OH-MDZ or 4-OH-MDZ” value [4] is on record?
A: Its value is “decreased glucuronide formation significantly”.

Q: What does the source list for `OC(Cn1cncn1)(Cn1cncn1)c1ccc(F)cc1F` [fluconazole]?
A: effect on the glucuronidation of either hydroxymidazolam metabolite ([4]; pooled HLMs, substrate 1 µM, even at 300 µM fluconazole): no effect; IC50 for 1’-OH-MDZ lower than that for 4-OH-MDZ ([3]; human, pH 7.4): 50%; plasma protein binding [5]: 11–12%; elimination t1/2 [6]: ~ 32 hrs
